This is an account of results in patent US20110009264A1, “HERBICIDAL COMBINATION” (Bayer CropScience AG, priority 2007, published 2011).

The subject of one assay is Polygonum convolvulus. The experiment in a line: Post-emergence action against weeds, greenhouse, visual scoring of control. It is filed as in vivo. The settings on record: 11 days after application. As to the method: (§1) Seeds or rhizome pieces of monocotyledonous and dicotyledonous weeds were placed in sandy loam soil in plastic pots, covered with soil and cultivated in a greenhouse under good growth conditions. Three weeks after sowing, the test plants were treated at the 2- to 4-leaf stage. The compounds according to the invention, formulated as wettable powders or as emulsion concentrates, were sprayed onto the green parts of the plants in various dosages at a water application rate of 100 to 800 l/ha (converted).
(§2) 0%=no control 100%=complete control

The test system of another assay is Veronica persica. Described as above. It is filed as in vivo. The settings on record: 11 days after application. The protocol: as §1, with “(converted). After the test plants had been left to stand in the greenhouse for 10 to 28 days under optimum growth conditions, the effect of the preparations was scored visually in comparison to untreated controls.” for “(converted).”
as §2

With `COc1c(Cl)ccc(Cl)c1C(=O)O` [Compound B1-1, dicamba], the “Polygonum convolvulus Control in %” value in the assay on Polygonum convolvulus (100 g of ai/ha) came to 40%.

As to `Nc1c(Cl)c(Cl)nc(C(=O)O)c1Cl` [Compound B2-4, picloram], the “Polygonum convolvulus Control in %” value in the assay with Polygonum convolvulus (80 g of ai/ha) is 20%.

For the compound `Nc1c(Cl)c(F)nc(OCC(=O)O)c1Cl` [Compound B2-2, fluoroxypyr], the “Veronica persica Control in %” value with Veronica persica (80 g of ai/ha) came out at 60%.

For `O=C(O)c1nc(Cl)ccc1Cl` [Compound B2-1, clopyralid], the “Veronica persica Control in %” value with Veronica persica (50 g of ai/ha) was 0%.

Take `Nc1nc(C2CC2)nc(C(=O)[O-])c1Cl.[K+]` [Compound B6-1, aminocyclopyrachlor]: the “Polygonum convolvulus Control in %” value in the assay on Polygonum convolvulus (25 g of ai/ha) is given as 60%.

For the compound “sodium salt of 2-iodo-N-[(4-methoxy-6-methyl-1,3,5-triazin-2-yl)carbamoyl]benzenesulfonamide [Compound A-2]”, the “Veronica persica Control in %” value with Veronica persica (2.5 g of ai/ha, 0%=no control, 100%=complete control) was 0%.
